The test system of test [1] is inflammation-related CRM1 cargo proteins. Nature of the test: Immunofluorescence of nuclear localization of CRM1 cargos in HeLa and THP-1 cells. In kind it is cell-based, human. The note with it: 1-10 μM Compound 1 + 20 ng/mL TNFα, 4-24 h. The protocol:
HeLa and THP-1 (human acute monocytic leukemia) cells were treated with inflammation inducing factor, TNFα, alone or in combination with 1-10 μM of Compound 1 for 4-24 h, and then were analyzed by immunofluorescence (IF) for the nuclear localization of inflammation-related CRM1 cargo proteins: IκB, Nrf2, HMGB1, FoxP3, FOXO1a, RxRα, PPARγ and NFκB (p65 subunit).
For the detection of IkB, Nrf2, RxRα and PPARγ localization, cells were pre-incubated with 10 μM Compound 1 for 30 minutes, followed by incubation with 20 ng/mL TNFα for 4 hrs in serum free media. […] IκB was detected by the primary rabbit monoclonal (E130) antibody from Abcam (ab32518); Nrf2 was detected by the primary rabbit polyclonal antibody from Santa Cruz (sc722); RxR alpha was detected by the primary rabbit polyclonal antibody from Santa Cruz (sc553); PPAR gamma was detected by the primary rabbit monoclonal […] antibody from Cell Signaling (#2443); Foxo1A was detected by the primary rabbit monoclonal [C29H4] antibody from Cell Signaling (#2880); HMGB1 was detected by the primary rabbit polyoclonal antibody from Abcam (ab18256); FoxP3 was detected by the primary rabbit polyclonal antibody from Abcam (ab10563); NFκB-p65 was detected by the primary rabbit monoclonal [C22B4] antibody from Cell Signaling (#4764). […]

In test [2] the test system is A549 xenograft tumors. Nature of the test: A549 lung carcinoma xenograft in SCID mice. In kind it is in vivo. The protocol: The A549 cell line was derived from explant culture of alveolar carcinoma tissue from a person. The cells were grown in Ham's F12-K tissue culture media with 10% fetal calf serum and 1% penicillin/streptomycin. Cells were routinely trypsinized and passaged 1:10. Thirty-two (32) female CB-17 SCID mice (Charles River Labs strain code 236), aged 5 to 6 weeks were used with a mean pre-treatment body weight of 16.3 grams. Mice were divided into four (4) groups of eight (8) prior to the initiation of treatment based on tumor volume. On the day of implantation, cells were washed in PBS, trypsinized and resuspended in complete media to a density of 2×10^7 cells/mL prior to being mixed with an equal volume of Matrigel. This mixture was then inoculated subcutaneously into mice in a volume of 0.1 mL using a 23G needle.
Animal weights and condition were recorded daily, and tumors were measured on Mondays, Wednesdays and Fridays with micro-calipers, and tumor volume was calculated as (length×width×width)/2.
Animals with weight loss of more than 20% of their starting weight were euthanized. Mice with weight loss of more than 15% of their starting weight were not treated again until weight loss recovered to less than 5% of their starting weight. Any animals with a tumor volume of more than 1500 mm^3 were euthanized.
Dosing solutions were prepared fresh on each day of dosing. Compound 2 was supplied as a lyophilized powder containing 69.61% Compound 2 with the balance made up of Pluronic F-68 and PVP K29/32. This was prepared by dissolving the lyophilized powder in sterile water. Cisplatin was dissolved at 5 mg/mL in DMSO and diluted 1:10 in sterile water for injection. All test articles were administered in a volume of 0.1 mL/10 g body weight.
Statistical differences between treatment groups were determined using Mann-Whitney Rank Sum or ANOVA tests with a critical value of 0.05.

Test [3] deals with anti-collagen antibody induced arthritis. Nature of the test: Anti-collagen antibody induced mouse model of rheumatoid arthritis (CAIA). The format is in vivo, mice. The protocol:
Twenty-four (24) male Balb/c mice, aged 6 to 8 weeks were used. […] On study Day 0 (study commencement), all mice were subjected to a 2 mg intravenous injection of ArthritoMAb™ antibody cocktail (MD Biosciences # S1203001) followed by an intraperitoneal injection of LPS ([…]) on study Day 3. […] Treatments were administered once daily on days 4, 6, 8 and 10 for all groups, except where dosing vacations applied. If an animal's weight dropped below 87% of its day 0 starting weight, the animal was not dosed until it gained weight equivalent to 90% or more of day 0 weight.
Arthritis development, clinical signs and body weights were monitored in all mice on study days 0, 3-8, 10 and 12. Observations included changes in skin, fur, eyes, mucous membranes, occurrence of secretions and excretions (e.g., diarrhea) and autonomic activity (e.g., lacrimation, salivation, piloerection, pupil size, unusual respiratory pattern). All paws (front left and right, and rear left and right) of each animal were examined for signs of arthritogenic responses prior to arthritis induction and test item or control item administration on study Day 0 and subsequently on study Days 3-8, 10 and 12 (study termination). Arthritis reactions were scored and recorded according to a 0-4 scale in ascending order of severity, as shown Table 5 below. Paw thickness was also measured using a dial caliper (Kroeplin, Munich, Germany).
The dose administered was calculated based on the assumption that the animals weighed, on average, 20 g. […] Vehicle for the vehicle control group was prepared by dissolving 0.6 g Pluronic and 0.6 g PVP in 100 mL distilled deionised water. The MAb stock solution (10 mg/mL) was supplied by MD Biosciences, Division of Morwell Diagnostics GmbH. LPS was diluted with PBS to achieve the appropriate concentration. Thorough vortexing was required just prior to its injection. […] A fixed volume of 200 μL was administered to each mouse.
Evaluation was primarily based on the mean values for arthritis scoring and paw thickness measurements. Where appropriate, analysis of the data by ANOVA with Tukey post hoc analysis was applied to determine significance of treatment effects.

As for `CC(C)(C)C(=O)NNC(=O)/C=C\n1cnc(-c2cc(C(F)(F)F)cc(C(F)(F)F)c2)n1` [Compound 1, (Z)-3-(3-(3,5-bis(trifluoromethyl)phenyl)-1H-1,2,4-triazol-1-yl)-N′-pivaloylacrylohydrazide], the “nuclear localization of IκB, Nrf2, HMGB1, FoxP3, FOXO1a, RxRα, PPARγ and NFκB” value in test [1] was “nuclear localization of the above cargos, even in the presence of TNFα”.
On to `O=C(/C=C\n1cnc(-c2cc(C(F)(F)F)cc(C(F)(F)F)c2)n1)NNC(=O)CN1CCOCC1` [Compound 2, (Z)-3-(3-(3,5-bis(trifluoromethyl)phenyl)-1H-1,2,4-triazol-1-yl)-N′-(2-morpholinoacetyl)acrylohydrazide], for which the “tumor growth versus vehicle control group (mean AUC of tumor volume, one-way ANOVA)” value in test [2] (Compound 2 5 or 10 mg/kg PO, cisplatin 5 mg/kg IP) is “antitumor effect at both 5 mg/kg and 10 mg/kg doses in a dose dependent manner”. Also, the mean tumor volume in test [2] (Day 1, 5 mg/kg PO MWF) stood at 101 mm^3; in test [2] (Day 1, 10 mg/kg PO MWF), 101 mm^3; in test [2] (Day 29, 5 mg/kg PO MWF), 1231 mm^3; in test [2] (Day 29, 10 mg/kg PO MWF) it was 686 mm^3. Further, the “total arthritis score compared to vehicle” value is listed as “significantly reduced total arthritis scores” in test [3] (4 mg/kg orally, days 6-12) and “significantly reduced total arthritis scores” in test [3] (7.5 mg/kg orally, days 5-12). For the same compound, in test [3] (7.5 mg/kg or 4 mg/kg orally), the “anti-arthritic activity (mean arthritis scores, paw thickness)” value is reported as “significant anti-arthritic activity”. Also, the “rear paw arthritis score compared to vehicle” value in test [3] (7.5 mg/kg or 4 mg/kg orally, days 5-12) is “significantly reduced rear paw arthritis scores”.

Values taken from patent US10617677B2, “Nuclear transport modulators and uses thereof” (Biogen MA Inc., priority 2012, dated 2020).
